Assay type in all cases: biochemical
One assay has as its target T1, Pim2 (Homo sapiens, UniProt Q9P1W9).
T1 construct: purchased Invitrogen PV3649
In words: Pim-2 kinase assay (Pim enzyme assays, Example A). Particulars: 1 mM ATP; read-out: Pim2 IC50. Here is the method:
Pim-2 kinase assay—20 μL reactions were run in white 384 well polystyrene plates dotted with 0.8 μL compound/DMSO in the assay buffer (50 mM Tris, pH 7.5, 0.01% Tween-20, 5 mM mgCl2, 0.01% BSA, 5 mM DTT), containing 0.05 μM Fluorescein-labeled CREBtide peptide substrate (Invitrogen PV3508), 1 mM ATP, and 1 nM enzyme (Invitrogen PV3649) for 2 h at 25° C. Reactions were stopped by addition of 10 μL TR-FRET Dilution Buffer (Invitrogen PV3574) with 30 mM EDTA and 1.5 nM LanthaScreen Tb-CREB pSer133 antibody (Invitrogen PV3566). After 30 min. incubation at room temperature, plates were read on a PHERAstar FS plate reader (BMG Labtech).

A further assay addresses T2, Pim-1 (Homo sapiens, UniProt P11309).
T2 construct: purchased Invitrogen PV3503
Description: Pim-1 kinase assay (Pim enzyme assays, Example A). The note with it: 1 mM ATP; read-out: Pim1 IC50. Here is the method: (§1) Pim-1 and Pim-3 kinase assays-20 μL reactions were run in white 384 well polystyrene plates dotted with 0.8 μL compound/DMSO in the assay buffer (50 mM Tris, pH 7.5, 0.01% Tween-20, 5 mM mgCl2, 0.01% BSA, 5 mM DTT), containing 0.05 μM Biotin-labeled BAD peptide substrate (AnaSpec 62269), 1 mM ATP, and […] (Pim-1, Invitrogen PV3503) or […] (Pim-3, Millipore 14-738) enzyme for 1 h at 25° C. Reactions were stopped by addition of 10 μL STOP Buffer (150 mM Tris, pH=7.5, 150 mM NaCl, 75 mM EDTA, 0.01% Tween-20, 0.3% BSA,) supplemented with Phospho-Bad (Ser 12) Antibody (Cell Signaling 9291) diluted 666-fold, and Streptavidin donor beads (PerkinElmer 6760002) along with Protein-A acceptor beads (PerkinElmer 6760137) at 15 μg/mL each. Supplementation of the STOP buffer with beads and stopping the reactions were done under reduced light. Prior to the stopping reactions STOP buffer with beads was preincubated for 1 h in the dark at room temperature. After stopping the reactions, plates were incubated for 1 h in the dark at room temperature before reading on a PHERAstar FS plate reader (BMG Labtech) under reduced light.

Another assay addresses T3, Pim-3 (Homo sapiens, UniProt Q86V86).
T3 construct: purchased Millipore 14-738
Description: Pim-3 kinase assay (Pim enzyme assays, Example A). Particulars: 1 mM ATP; read-out: Pim3 IC50. The method, then: as §1

The values that follow come from US9278950B2, “Bicyclic aromatic carboxamide compounds useful as Pim kinase inhibitors” (Incyte Corporation, priority 2013, dated 2016).

One may read the IC50 as the midpoint of a concentration-inhibition curve.

T2 sequence (P11309 whole entry): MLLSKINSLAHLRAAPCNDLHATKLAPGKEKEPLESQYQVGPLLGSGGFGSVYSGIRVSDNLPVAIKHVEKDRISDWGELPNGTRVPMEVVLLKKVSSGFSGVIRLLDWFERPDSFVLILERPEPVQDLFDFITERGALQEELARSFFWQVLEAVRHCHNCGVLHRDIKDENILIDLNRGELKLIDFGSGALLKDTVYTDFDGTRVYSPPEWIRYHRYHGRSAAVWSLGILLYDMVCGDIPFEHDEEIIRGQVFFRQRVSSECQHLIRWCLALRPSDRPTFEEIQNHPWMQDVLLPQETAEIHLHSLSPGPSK
T1 sequence (Q9P1W9 whole entry): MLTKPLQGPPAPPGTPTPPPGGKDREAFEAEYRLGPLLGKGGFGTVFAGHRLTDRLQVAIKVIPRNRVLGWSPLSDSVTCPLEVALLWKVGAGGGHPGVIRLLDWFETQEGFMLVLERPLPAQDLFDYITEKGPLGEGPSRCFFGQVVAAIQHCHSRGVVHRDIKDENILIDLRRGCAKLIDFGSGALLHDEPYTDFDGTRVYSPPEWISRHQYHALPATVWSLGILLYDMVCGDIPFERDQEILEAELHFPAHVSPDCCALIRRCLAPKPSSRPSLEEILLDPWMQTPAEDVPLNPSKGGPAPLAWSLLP

Regarding `CCc1ccc2cc(N)c(C(=O)Nc3cnc4c(c3N3CCC[C@H](N)C3)CCC4O)nc2c1` (single isomer, unassigned) [22 isomer 2], the IC50 at Pim2 was more than 2000 nM; at Pim-1, not above 100 nM; on Pim-3, not above 100 nM.
Turning to `Nc1cc2ccc(C3CCNCC3)cc2nc1C(=O)Nc1cnccc1N1CCC[C@H](N)C1` [Example 1, 3-Amino-N-{4-[(3S)-3-aminopiperidin-1-yl]pyridin-3-yl}-7-piperidin-4-ylquinoline-2-carboxamide], the IC50 is 100 to 1000 nM on Pim2, not above 100 nM on Pim-1 and not above 100 nM at Pim-3.
Take `Nc1cc2ccc(C3CCOCC3)cc2nc1C(=O)Nc1cnccc1N1CCC[C@H](N)C1` [Example 2, 3-Amino-N-{4-[(3S)-3-aminopiperidin-1-yl]pyridin-3-yl}-7-(tetrahydro-2H-pyran-4-yl)quinoline-2-carboxamide]: the IC50 at Pim2 was 100 to 1000 nM; at Pim-1, not above 100 nM; on Pim-3, not above 100 nM.
`Nc1cc2ccc(-c3c(F)cccc3F)cc2nc1C(=O)Nc1cnccc1N1CCC[C@H](N)C1` [Example 3, 3-Amino-N-{4-[(3S)-3-aminopiperidin-1-yl]pyridin-3-yl}-7-(2,6-difluorophenyl)quinoline-2-carboxamide]: the IC50 at Pim2 was 100 to 1000 nM; at Pim-1, not above 100 nM; at Pim-3 it was not above 100 nM.
`Cn1nccc1-c1ccc2cc(N)c(C(=O)Nc3cnccc3N3CCC[C@H](N)C3)nc2c1` [Example 4, 3-Amino-N-{4-[(3S)-3-aminopiperidin-1-yl]pyridin-3-yl}-7-(1-methyl-1H-pyrazol-5-yl)quinoline-2-carboxamide]: the results for the concentration for half-maximal inhibition (IC50) on Pim2, at Pim-1 and at Pim-3 were 1000 to 10000 nM, not above 100 nM and not above 100 nM, respectively.
On to `N#Cc1ccccc1-c1ccc2cc(N)c(C(=O)Nc3cnccc3N3CCC[C@H](N)C3)nc2c1` [Example 5, 3-Amino-N-{4-[(3S)-3-aminopiperidin-1-yl]pyridin-3-yl}-7-(2-cyanophenyl)quinoline-2-carboxamide], for which the IC50 at Pim2, on Pim-1 and on Pim-3 was not above 100 nM throughout.
As to `N#Cc1cccc(F)c1-c1ccc2cc(N)c(C(=O)Nc3cnccc3N3CCC[C@H](N)C3)nc2c1` [Example 7, 3-Amino-N-{4-[(3S)-3-aminopiperidin-1-yl]pyridin-3-yl}-7-(2-cyano-6-fluorophenyl)quinoline-2-carboxamide], the IC50 at Pim2, at Pim-1 and at Pim-3 was not above 100 nM each time.
Regarding `NC(=O)c1cccc(F)c1-c1ccc2cc(N)c(C(=O)Nc3cnccc3N3CCC[C@H](N)C3)nc2c1` [Example 8, 3-Amino-7-[2-(aminocarbonyl)-6-fluorophenyl]-N-{4-[(3S)-3-aminopiperidin-1-yl]pyridin-3-yl}quinoline-2-carboxamide], the results for the concentration for half-maximal inhibition (IC50) on Pim2, on Pim-1 and at Pim-3 were more than 2000 nM, more than 40 nM and not above 100 nM, respectively.
In the same order, the values of `CC(C)c1ccc2cc(N)c(C(=O)Nc3cnccc3N3CCC[C@H](N)C3)nc2c1` [Example 9, 3-Amino-N-{4-[(3S)-3-aminopiperidin-1-yl]pyridin-3-yl}-7-isopropylquinoline-2-carboxamide] are not above 100 nM, not above 100 nM and not above 100 nM.
With `CCc1ccc2cc(N)c(C(=O)Nc3cnccc3N3CCC[C@H](N)C3)nc2c1` [Example 10, 3-Amino-N-{4-[(3S)-3-aminopiperidin-1-yl]pyridin-3-yl}-7-ethylquinoline-2-carboxamide], the concentration for half-maximal inhibition (IC50) at Pim2, at Pim-1 and on Pim-3 was not above 100 nM each time.
For `Nc1cc2ccccc2nc1C(=O)Nc1cnccc1N1CCC[C@H](N)C1` [Example 11, 3-Amino-N-{4-[(3S)-3-aminopiperidin-1-yl]pyridin-3-yl}quinoline-2-carboxamide], the figures for the IC50 at Pim2, on Pim-1 and on Pim-3 were 100 to 1000 nM, not above 100 nM and not above 100 nM, respectively.
Take `Nc1cc2ccc(Br)cc2nc1C(=O)Nc1cnccc1N1CCC[C@H](N)C1` [Example 12, 3-Amino-N-{4-[(3S)-3-aminopiperidin-1-yl]pyridin-3-yl}-7-bromoquinoline-2-carboxamide]: the IC50 is 100 to 1000 nM at Pim2, not above 100 nM at Pim-1 and not above 100 nM on Pim-3.
As for `N#CCc1ccc2cc(N)c(C(=O)Nc3cnccc3N3CCC[C@H](N)C3)nc2c1` [Example 13, 3-Amino-N-{4-[(3S)-3-aminopiperidin-1-yl]pyridin-3-yl}-7-(cyanomethyl)quinoline-2-carboxamide], the IC50 is 100 to 1000 nM on Pim2, not above 100 nM on Pim-1 and not above 100 nM on Pim-3.
For the molecule `CCc1cc2nc(C(=O)Nc3cnccc3N3CCC[C@H](N)C3)c(N)cc2cc1F` [Example 14, 3-Amino-N-{4-[(3S)-3-aminopiperidin-1-yl]pyridin-3-yl}-7-ethyl-6-fluoroquinoline-2-carboxamide], the IC50 at Pim2 was 100 to 1000 nM; at Pim-1, not above 100 nM; at Pim-3, not above 100 nM.
As for `CC(O)c1ccc2cc(N)c(C(=O)Nc3cnccc3N3CCC[C@H](N)C3)nc2c1` (stereo partly drawn) [Example 15, 3-Amino-N-{4-[(3S)-3-aminopiperidin-1-yl]pyridin-3-yl}-7-(1-hydroxyethyl)quinoline-2-carboxamide], the IC50 on Pim2 is 100 to 1000 nM; at Pim-1 it was not above 100 nM; on Pim-3 it was not above 100 nM.
For `CC(C)(O)c1ccc2cc(N)c(C(=O)Nc3cnccc3N3CCC[C@H](N)C3)nc2c1` [Example 16, 3-Amino-N-{4-[(3S)-3-aminopiperidin-1-yl]pyridin-3-yl}-7-(1-hydroxy-1-methylethyl)quinoline-2-carboxamide], the IC50 at Pim2 was 100 to 1000 nM; on Pim-1, not above 100 nM; at Pim-3, not above 100 nM.
Take `Nc1cc2ccc(C(O)c3ccccc3)cc2nc1C(=O)Nc1cnccc1N1CCC[C@H](N)C1` (stereo partly drawn) [Example 17, 3-Amino-N-{4-[(3S)-3-aminopiperidin-1-yl]pyridin-3-yl}-7-[hydroxy(phenyl)methyl]quinoline-2-carboxamide]: the IC50 on Pim2 was more than 2000 nM; on Pim-1, not above 100 nM; at Pim-3 it was not above 100 nM.
Regarding `CC(F)c1ccc2cc(N)c(C(=O)Nc3cnccc3N3CCC[C@H](N)C3)nc2c1` (stereo partly drawn) [Example 18, 3-Amino-N-{4-[(3S)-3-aminopiperidin-1-yl]pyridin-3-yl}-7-(1-fluoroethyl)quinoline-2-carboxamide], the figures for the IC50 at Pim2, at Pim-1 and on Pim-3 were 100 to 1000 nM, not above 100 nM and not above 100 nM, respectively.
As for `Nc1cc2ccc(CN3CCCC3)cc2nc1C(=O)Nc1cnccc1N1CCC[C@H](N)C1` [Example 19, 3-Amino-N-{4-[(3S)-3-aminopiperidin-1-yl]pyridin-3-yl}-7-(pyrrolidin-1-ylmethyl)quinoline-2-carboxamide], the IC50 on Pim2 was more than 2000 nM; on Pim-1 it was not above 100 nM; on Pim-3, not above 100 nM.
Consider `CN(C)Cc1ccc2cc(N)c(C(=O)Nc3cnccc3N3CCC[C@H](N)C3)nc2c1` [Example 20, 3-Amino-N-{4-[(3S)-3-aminopiperidin-1-yl]pyridin-3-yl}-7-[(dimethylamino)methyl]quinoline-2-carboxamide], for which the values for the IC50 at Pim2, on Pim-1 and on Pim-3 were more than 2000 nM, not above 100 nM and not above 100 nM, respectively.
Turning to `CCOc1ccc2cc(N)c(C(=O)Nc3cnccc3N3CCC[C@H](N)C3)nc2n1` [Example 25, 3-Amino-N-{4-[(3S)-3-aminopiperidin-1-yl]pyridin-3-yl}-7-ethoxy-1,8-naphthyridine-2-carboxamide], the IC50 on Pim-1 and on Pim-3 was not above 100 nM throughout.
Turning to `CCOc1ccc2cc(N)c(C(=O)Nc3cnccc3N3C[C@@H](N)[C@H](O)[C@@H](C)C3)nc2n1` [Example 26, 3-Amino-N-{4-[(3R,4R,5S)-3-amino-4-hydroxy-5-methylpiperidin-1-yl]pyridin-3-yl}-7-ethoxy-1,8-naphthyridine-2-carboxamide], the IC50 at Pim-1 and at Pim-3 was not above 100 nM each time.
For the molecule `CCc1cc2nc(C(=O)Nc3cnccc3N3CCC[C@H](N)C3)c(N)cc2cn1` [Example 27, 3-Amino-N-{4-[(3S)-3-aminopiperidin-1-yl]pyridin-3-yl}-7-ethyl-1,6-naphthyridine-2-carboxamide], the IC50 at Pim-1 and on Pim-3 was not above 100 nM each time.
